In the kinase profiling compilation of Christmann-Franck et al. (2016):

Assays:
Experiment in all cases: radiometric filter-binding kinase assay
IKBKB (human) = IKBKB (human) (UniProt O14920); details: compound 10.0 µM
MAP3K9 (human) = MAP3K9 (human) (UniProt P80192)
MAPKAPK3 (human) = MAPKAPK3 (human) (UniProt Q16644)
MKNK2 (human) = MKNK2 (human) (UniProt Q9HBH9)
INSRR (human) = INSRR (human) (UniProt P14616)
MYLK (human) = MYLK (human) (UniProt Q15746)
PHKG1 (human) = PHKG1 (human) (UniProt Q16816)
CSNK2A1 (human) = CSNK2A1 (human) (UniProt P68400)
PRKAA1 or PRKAA2 (rat) = details: accession and sequence are those of the human protein
PRKCZ (human) = PRKCZ (human) (UniProt Q05513)
MAPK1 (human) = MAPK1 (human) (UniProt P28482)
MKNK1 (human) = MKNK1 (human) (UniProt Q9BUB5)
NTRK1 (human) = NTRK1 (human) (UniProt P04629)
FGFR1 (human) = FGFR1 (human) (UniProt P11362)
SRC (human) = SRC (human) (UniProt P12931)
MAPK13 (human) = MAPK13 (human) (UniProt O15264)
DAPK1 (human) = DAPK1 (human) (UniProt P53355)
AURKB (human) = AURKB (human) (UniProt Q96GD4)
Sequence of AURKB (human) (Q96GD4 whole entry, looked up): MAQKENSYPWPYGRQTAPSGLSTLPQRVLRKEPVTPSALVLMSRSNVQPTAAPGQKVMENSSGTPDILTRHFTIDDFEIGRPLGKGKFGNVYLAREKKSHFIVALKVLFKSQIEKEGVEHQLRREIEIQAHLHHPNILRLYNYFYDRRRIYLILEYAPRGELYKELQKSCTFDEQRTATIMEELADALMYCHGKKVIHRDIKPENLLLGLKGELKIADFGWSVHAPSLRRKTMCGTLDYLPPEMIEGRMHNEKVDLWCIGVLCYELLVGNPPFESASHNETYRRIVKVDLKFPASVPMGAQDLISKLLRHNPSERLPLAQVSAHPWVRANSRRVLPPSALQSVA

Sequence of PRKCZ (human) (Q05513 whole entry, looked up): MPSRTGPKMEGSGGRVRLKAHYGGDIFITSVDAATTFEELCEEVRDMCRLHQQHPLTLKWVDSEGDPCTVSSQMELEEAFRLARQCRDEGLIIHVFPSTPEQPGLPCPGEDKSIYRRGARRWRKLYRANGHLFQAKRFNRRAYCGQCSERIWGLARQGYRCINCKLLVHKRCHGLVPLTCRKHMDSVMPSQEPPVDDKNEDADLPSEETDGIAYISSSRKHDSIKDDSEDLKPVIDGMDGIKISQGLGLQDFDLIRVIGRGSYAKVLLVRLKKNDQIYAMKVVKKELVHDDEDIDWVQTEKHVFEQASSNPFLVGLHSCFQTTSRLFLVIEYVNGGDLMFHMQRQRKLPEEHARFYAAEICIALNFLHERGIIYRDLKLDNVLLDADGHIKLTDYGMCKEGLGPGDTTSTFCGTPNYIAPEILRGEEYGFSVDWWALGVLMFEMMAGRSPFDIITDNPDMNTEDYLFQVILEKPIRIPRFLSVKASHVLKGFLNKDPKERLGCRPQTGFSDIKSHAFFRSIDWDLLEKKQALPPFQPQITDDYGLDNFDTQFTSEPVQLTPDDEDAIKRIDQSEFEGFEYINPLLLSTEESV
Sequence of MKNK2 (human) (Q9HBH9 whole entry, looked up): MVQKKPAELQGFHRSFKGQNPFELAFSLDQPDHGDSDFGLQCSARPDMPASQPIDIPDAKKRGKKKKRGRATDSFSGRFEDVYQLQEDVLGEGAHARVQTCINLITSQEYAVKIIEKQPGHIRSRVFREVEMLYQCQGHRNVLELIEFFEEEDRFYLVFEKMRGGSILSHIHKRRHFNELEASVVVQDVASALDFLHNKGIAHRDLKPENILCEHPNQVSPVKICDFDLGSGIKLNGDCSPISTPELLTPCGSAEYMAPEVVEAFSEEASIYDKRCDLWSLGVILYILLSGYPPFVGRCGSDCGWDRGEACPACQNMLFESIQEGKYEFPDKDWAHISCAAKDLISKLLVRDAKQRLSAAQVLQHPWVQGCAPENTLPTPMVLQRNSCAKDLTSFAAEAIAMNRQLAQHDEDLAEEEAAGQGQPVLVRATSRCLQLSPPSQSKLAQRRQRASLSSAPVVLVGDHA
Sequence of NTRK1 (human) (P04629 whole entry, looked up): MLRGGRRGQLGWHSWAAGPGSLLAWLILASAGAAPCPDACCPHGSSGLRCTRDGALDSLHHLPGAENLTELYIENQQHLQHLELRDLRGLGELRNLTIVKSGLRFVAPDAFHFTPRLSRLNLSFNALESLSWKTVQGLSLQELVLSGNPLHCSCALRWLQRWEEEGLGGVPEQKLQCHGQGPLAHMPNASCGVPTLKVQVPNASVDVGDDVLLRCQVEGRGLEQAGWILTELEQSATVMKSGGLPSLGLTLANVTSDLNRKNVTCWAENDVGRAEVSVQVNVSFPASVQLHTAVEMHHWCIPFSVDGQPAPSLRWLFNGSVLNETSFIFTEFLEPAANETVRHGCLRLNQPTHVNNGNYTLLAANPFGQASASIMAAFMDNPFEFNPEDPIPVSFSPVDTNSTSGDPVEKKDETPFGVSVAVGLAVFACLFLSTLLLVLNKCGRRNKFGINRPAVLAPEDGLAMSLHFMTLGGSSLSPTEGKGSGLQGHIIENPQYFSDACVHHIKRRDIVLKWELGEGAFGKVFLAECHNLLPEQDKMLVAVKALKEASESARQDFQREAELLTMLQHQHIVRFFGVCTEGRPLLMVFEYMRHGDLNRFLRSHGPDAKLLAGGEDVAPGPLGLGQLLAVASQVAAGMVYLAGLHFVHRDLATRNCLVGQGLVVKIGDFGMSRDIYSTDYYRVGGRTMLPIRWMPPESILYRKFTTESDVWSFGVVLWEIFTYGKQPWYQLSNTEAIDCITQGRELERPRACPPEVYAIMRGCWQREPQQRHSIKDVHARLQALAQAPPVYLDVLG
Sequence of MAPK1 (human) (P28482 whole entry, looked up): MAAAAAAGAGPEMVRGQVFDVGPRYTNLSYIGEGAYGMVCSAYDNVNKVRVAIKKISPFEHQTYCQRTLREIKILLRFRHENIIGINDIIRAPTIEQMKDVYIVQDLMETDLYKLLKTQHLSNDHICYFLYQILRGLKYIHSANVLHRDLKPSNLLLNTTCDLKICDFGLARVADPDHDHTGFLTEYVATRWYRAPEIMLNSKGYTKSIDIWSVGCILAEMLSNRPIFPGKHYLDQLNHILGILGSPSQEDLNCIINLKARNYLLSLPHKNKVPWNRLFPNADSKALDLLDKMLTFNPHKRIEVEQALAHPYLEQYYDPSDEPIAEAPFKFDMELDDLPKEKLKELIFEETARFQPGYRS
Sequence of MAPK13 (human) (O15264 whole entry, looked up): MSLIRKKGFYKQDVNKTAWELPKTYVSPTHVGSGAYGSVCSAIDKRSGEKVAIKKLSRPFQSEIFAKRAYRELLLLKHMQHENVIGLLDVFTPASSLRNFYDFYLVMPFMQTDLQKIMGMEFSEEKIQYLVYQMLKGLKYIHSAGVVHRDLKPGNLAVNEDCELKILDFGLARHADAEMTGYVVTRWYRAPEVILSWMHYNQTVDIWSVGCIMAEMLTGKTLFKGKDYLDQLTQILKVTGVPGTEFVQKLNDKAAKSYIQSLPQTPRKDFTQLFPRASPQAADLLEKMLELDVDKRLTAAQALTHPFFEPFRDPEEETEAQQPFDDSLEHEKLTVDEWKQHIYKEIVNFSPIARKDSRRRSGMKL
Sequence of CSNK2A1 (human) (P68400 whole entry, looked up): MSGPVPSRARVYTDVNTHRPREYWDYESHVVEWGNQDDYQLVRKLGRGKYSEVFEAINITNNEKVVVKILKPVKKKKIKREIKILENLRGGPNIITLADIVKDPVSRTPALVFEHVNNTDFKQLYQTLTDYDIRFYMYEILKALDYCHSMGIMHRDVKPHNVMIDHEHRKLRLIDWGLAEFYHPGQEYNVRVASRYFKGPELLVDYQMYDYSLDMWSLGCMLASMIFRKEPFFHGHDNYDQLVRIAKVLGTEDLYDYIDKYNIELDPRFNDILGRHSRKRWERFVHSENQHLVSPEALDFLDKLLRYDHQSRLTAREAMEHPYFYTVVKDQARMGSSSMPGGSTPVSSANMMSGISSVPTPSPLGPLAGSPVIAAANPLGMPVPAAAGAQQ
Sequence of MKNK1 (human) (Q9BUB5 whole entry, looked up): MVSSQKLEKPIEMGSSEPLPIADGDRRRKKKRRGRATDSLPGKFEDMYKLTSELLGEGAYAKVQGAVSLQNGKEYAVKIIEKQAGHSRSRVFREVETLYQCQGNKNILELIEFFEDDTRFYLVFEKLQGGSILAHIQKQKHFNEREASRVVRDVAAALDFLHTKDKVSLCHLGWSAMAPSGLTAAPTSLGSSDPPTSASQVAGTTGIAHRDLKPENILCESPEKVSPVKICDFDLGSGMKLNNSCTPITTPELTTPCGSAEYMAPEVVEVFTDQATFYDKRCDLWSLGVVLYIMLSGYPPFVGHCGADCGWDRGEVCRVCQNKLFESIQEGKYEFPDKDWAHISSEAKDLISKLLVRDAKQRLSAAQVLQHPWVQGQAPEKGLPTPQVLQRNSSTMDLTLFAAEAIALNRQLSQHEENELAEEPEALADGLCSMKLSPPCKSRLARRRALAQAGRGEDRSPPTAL
Sequence of MAPKAPK3 (human) (Q16644 whole entry, looked up): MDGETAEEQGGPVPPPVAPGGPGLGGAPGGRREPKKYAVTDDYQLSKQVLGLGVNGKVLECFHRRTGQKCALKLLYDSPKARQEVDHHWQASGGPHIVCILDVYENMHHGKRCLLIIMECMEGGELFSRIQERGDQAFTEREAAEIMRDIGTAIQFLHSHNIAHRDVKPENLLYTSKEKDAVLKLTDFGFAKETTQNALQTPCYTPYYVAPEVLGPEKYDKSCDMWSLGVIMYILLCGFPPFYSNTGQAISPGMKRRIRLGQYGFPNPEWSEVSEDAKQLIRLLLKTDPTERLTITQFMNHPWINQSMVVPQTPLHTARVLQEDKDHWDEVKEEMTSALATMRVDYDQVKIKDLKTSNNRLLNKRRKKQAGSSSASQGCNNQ
Sequence of FGFR1 (human) (P11362 whole entry, looked up): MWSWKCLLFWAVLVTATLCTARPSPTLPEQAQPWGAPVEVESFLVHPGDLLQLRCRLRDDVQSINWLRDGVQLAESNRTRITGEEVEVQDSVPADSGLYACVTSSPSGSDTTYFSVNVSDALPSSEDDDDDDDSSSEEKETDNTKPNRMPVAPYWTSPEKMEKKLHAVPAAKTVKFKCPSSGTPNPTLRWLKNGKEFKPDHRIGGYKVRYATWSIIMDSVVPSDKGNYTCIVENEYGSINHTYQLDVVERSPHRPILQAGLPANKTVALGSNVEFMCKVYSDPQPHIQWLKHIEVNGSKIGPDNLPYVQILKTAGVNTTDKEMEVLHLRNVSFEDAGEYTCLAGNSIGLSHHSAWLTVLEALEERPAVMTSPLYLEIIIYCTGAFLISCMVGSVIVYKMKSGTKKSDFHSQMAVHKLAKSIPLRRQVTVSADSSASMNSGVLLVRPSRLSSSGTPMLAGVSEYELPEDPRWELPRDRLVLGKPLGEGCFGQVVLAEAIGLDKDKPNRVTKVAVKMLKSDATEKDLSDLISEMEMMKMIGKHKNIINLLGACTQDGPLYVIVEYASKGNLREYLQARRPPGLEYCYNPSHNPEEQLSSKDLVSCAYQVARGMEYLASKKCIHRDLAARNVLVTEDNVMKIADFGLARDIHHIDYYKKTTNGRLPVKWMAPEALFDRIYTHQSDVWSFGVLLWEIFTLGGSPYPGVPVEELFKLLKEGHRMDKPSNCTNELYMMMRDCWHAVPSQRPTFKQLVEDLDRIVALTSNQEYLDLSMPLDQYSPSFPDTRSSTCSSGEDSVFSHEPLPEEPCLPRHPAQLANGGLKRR

Cc1ccc(Sc2cnc(Nc3cccc(Br)n3)s2)cc1C(=O)N1CCN(C(=O)CN)CC1
residual activity (IKBKB (human)): 84%
residual activity (MAP3K9 (human); compound 0.1 µM): 78%
residual activity (MAP3K9 (human); compound 1.0 µM): 69%
residual activity (MAP3K9 (human); compound 10.0 µM): 17%
residual activity (MAPKAPK3 (human); compound 0.1 µM): 91%
residual activity (MAPKAPK3 (human); compound 1.0 µM): 77%
residual activity (MAPKAPK3 (human); compound 10.0 µM): 85%
residual activity (MKNK2 (human); compound 0.1 µM): 120%
residual activity (MKNK2 (human); compound 1.0 µM): 92%
residual activity (MKNK2 (human); compound 10.0 µM): 73%
residual activity (INSRR (human); compound 0.1 µM): 69%
residual activity (INSRR (human); compound 1.0 µM): 80%
residual activity (INSRR (human); compound 10.0 µM): 52%
residual activity (MYLK (human); compound 0.1 µM): 51%
residual activity (MYLK (human); compound 1.0 µM): 43%
residual activity (MYLK (human); compound 10.0 µM): 5%
residual activity (PHKG1 (human); compound 0.1 µM): 43%
residual activity (PHKG1 (human); compound 1.0 µM): 15%
residual activity (PHKG1 (human); compound 10.0 µM): 2%
residual activity (CSNK2A1 (human); compound 0.1 µM): 119%
residual activity (CSNK2A1 (human); compound 1.0 µM): 104%
residual activity (CSNK2A1 (human); compound 10.0 µM): 85%
residual activity (PRKAA1 or PRKAA2 (rat); compound 0.1 µM): 63%
residual activity (PRKAA1 or PRKAA2 (rat); compound 1.0 µM): 47%
residual activity (PRKAA1 or PRKAA2 (rat); compound 10.0 µM): 3%
residual activity (PRKCZ (human); compound 0.1 µM): 104%
residual activity (PRKCZ (human); compound 1.0 µM): 98%
residual activity (PRKCZ (human); compound 10.0 µM): 58%
residual activity (MAPK1 (human); compound 0.1 µM): 99%
residual activity (MAPK1 (human); compound 1.0 µM): 103%
residual activity (MAPK1 (human); compound 10.0 µM): 85%
residual activity (MKNK1 (human); compound 0.1 µM): 97%
residual activity (MKNK1 (human); compound 1.0 µM): 103%
residual activity (MKNK1 (human); compound 10.0 µM): 77%
residual activity (NTRK1 (human); compound 0.1 µM): 14%
residual activity (NTRK1 (human); compound 1.0 µM): 19%
residual activity (NTRK1 (human); compound 10.0 µM): 4%
residual activity (FGFR1 (human); compound 0.1 µM): 47%
residual activity (FGFR1 (human); compound 1.0 µM): 43%
residual activity (FGFR1 (human); compound 10.0 µM): 11%
residual activity (SRC (human); compound 0.1 µM): 22%
residual activity (SRC (human); compound 1.0 µM): 20%
residual activity (SRC (human); compound 10.0 µM): 2%
residual activity (MAPK13 (human); compound 0.1 µM): 97%
residual activity (MAPK13 (human); compound 1.0 µM): 24%
residual activity (MAPK13 (human); compound 10.0 µM): 5%
residual activity (DAPK1 (human); compound 0.1 µM): 99%
residual activity (DAPK1 (human); compound 1.0 µM): 96%
residual activity (DAPK1 (human); compound 10.0 µM): 63%
residual activity (AURKB (human); compound 0.1 µM): 65%
residual activity (AURKB (human); compound 1.0 µM): 42%
residual activity (AURKB (human); compound 10.0 µM): 7%
